According to PMC4890880 (ACS infectious diseases, 2016):
pIC50: −log10 of the molar value. Like-named read-outs stand apart in the source and are kept apart here.

Columns and labels:
[1] = test system: Plasmodium berghei (Pb-Luc) exoerythrocytic-stage parasites; conditions: for pIC50: read-out: PbLuc_IC50; for normalized signal at 0.000508053 (first series): concentration 0.000508053, first replicate series; for normalized signal at 0.000508053 (first series) / normalized signal at 0.000508053 (second series) / normalized signal at 0.00152416 (first series) / normalized signal at 0.00152416 (second series) / normalized signal at 0.00457247 (first series) / normalized signal at 0.00457247 (second series) / normalized signal at 0.0137174 (first series) / normalized signal at 0.0137174 (second series) / normalized signal at 0.0411523 (first series) / normalized signal at 0.0411523 (second series) / normalized signal at 0.123457 (first series) / normalized signal at 0.123457 (second series) / normalized signal at 0.37037 (first series) / normalized signal at 0.37037 (second series) / normalized signal at 1.11111 (first series) / normalized signal at 1.11111 (second series) / normalized signal at 3.33333 (first series) / normalized signal at 3.33333 (second series) / normalized signal at 10 (first series) / normalized signal at 10 (second series): fraction of control; for normalized signal at 0.000508053 (second series): concentration 0.000508053, second replicate series; for normalized signal at 0.00152416 (first series): concentration 0.00152416, first replicate series; for normalized signal at 0.00152416 (second series): concentration 0.00152416, second replicate series; for normalized signal at 0.00457247 (first series): concentration 0.00457247, first replicate series; for normalized signal at 0.00457247 (second series): concentration 0.00457247, second replicate series; for normalized signal at 0.0137174 (first series): concentration 0.0137174, first replicate series; for normalized signal at 0.0137174 (second series): concentration 0.0137174, second replicate series; for normalized signal at 0.0411523 (first series): concentration 0.0411523, first replicate series; for normalized signal at 0.0411523 (second series): concentration 0.0411523, second replicate series; for normalized signal at 0.123457 (first series): concentration 0.123457, first replicate series; for normalized signal at 0.123457 (second series): concentration 0.123457, second replicate series; for normalized signal at 0.37037 (first series): concentration 0.37037, first replicate series; for normalized signal at 0.37037 (second series): concentration 0.37037, second replicate series; for normalized signal at 1.11111 (first series): concentration 1.11111, first replicate series; for normalized signal at 1.11111 (second series): concentration 1.11111, second replicate series; for normalized signal at 3.33333 (first series): concentration 3.33333, first replicate series; for normalized signal at 3.33333 (second series): concentration 3.33333, second replicate series; for normalized signal at 10 (first series): concentration 10, first replicate series; for normalized signal at 10 (second series): concentration 10, second replicate series
HepG2-A16-CD81EGFP cells = conditions: for pIC50: read-out: Tox_IC50, HepG2 cytotoxicity
[2] = 2nd round, maximal inhibition in dose series
[3] = 2nd round, Broad DOS compounds, unit not printed (dose series head 10 to 0.000508053)

## C[C@@H]1CCCCO[C@@H](CN(C)S(=O)(=O)c2ccc(F)cc2)[C@H](C)CN([C@H](C)CO)C(=O)c2cc(N(C)C)ccc2O1 [BRD-K17570530-001-01-5]
[1]; concentration 0.000508053, first series
  normalised signal at concentration 0.000508053 (first series): 0.9121
[1]; concentration 0.000508053, second series
  normalised signal at concentration 0.000508053 (second series): 0.9459
[1]; concentration 0.00152416, first series
  normalised signal at concentration 0.00152416 (first series): 0.7511
[1]; concentration 0.00152416, second series
  normalised signal at concentration 0.00152416 (second series): 0.8649
[1]; concentration 0.00457247, first series
  normalised signal at concentration 0.00457247 (first series): 0.9449
[1]; concentration 0.00457247, second series
  normalised signal at concentration 0.00457247 (second series): 0.9685
[1]; concentration 0.0137174, first series
  normalised signal at concentration 0.0137174 (first series): 0.964
[1]; concentration 0.0137174, second series
  normalised signal at concentration 0.0137174 (second series): 0.9508
[1]; concentration 0.0411523, first series
  normalised signal at concentration 0.0411523 (first series): 1.052
[1]; concentration 0.0411523, second series
  normalised signal at concentration 0.0411523 (second series): 0.9313
[1]; concentration 0.123457, first series
  normalised signal at concentration 0.123457 (first series): 1.16
[1]; concentration 0.123457, second series
  normalised signal at concentration 0.123457 (second series): 0.9927
[1]; concentration 0.37037, first series
  normalised signal at concentration 0.37037 (first series): 0.8577
[1]; concentration 0.37037, second series
  normalised signal at concentration 0.37037 (second series): 0.9491
[1]; concentration 1.11111, first series
  normalised signal at concentration 1.11111 (first series): 0.9131
[1]; concentration 1.11111, second series
  normalised signal at concentration 1.11111 (second series): 0.9395
[1]; concentration 3.33333, first series
  normalised signal at concentration 3.33333 (first series): 0.7629
[1]; concentration 3.33333, second series
  normalised signal at concentration 3.33333 (second series): 0.867
[1]; concentration 10, first series of dose columns
  normalised signal at concentration 10 (first series): 0.8313
[1]; concentration 10, second series of dose columns
  normalised signal at concentration 10 (second series): 0.7644
[1]; sheet "2nd round", Broad compounds, dose response top concentration 10
  pIC50: < 5.00
[1]; sheet "2nd round"
  PbLuc_max_inhibition (%): 25%
HepG2-A16-CD81EGFP cells; sheet "2nd round"
  pIC50: < 5.00
  Tox_max_inhibition (%): 4.52%

## O=C(C[C@@H]1CC[C@@H]2[C@H](COC[C@@H](O)CN2C(=O)c2ccncc2)O1)Nc1ccc(-c2ccccc2)cc1 [BRD-K17686828-001-01-0]
[1]; [2]
  PbLuc_max_inhibition (%): 43%
[1]
  normalized signal at 0.000508053 (first series): 1.033
  normalized signal at 0.000508053 (second series): 0.8541
  normalized signal at 0.00152416 (first series): 0.9014
  normalized signal at 0.00152416 (second series): 0.8307
  normalized signal at 0.00457247 (first series): 0.9821
  normalized signal at 0.00457247 (second series): 0.9422
  normalized signal at 0.0137174 (first series): 1.011
  normalized signal at 0.0137174 (second series): 0.8936
  normalized signal at 0.0411523 (first series): 0.9016
  normalized signal at 0.0411523 (second series): 0.7632
  normalized signal at 0.123457 (first series): 1.067
  normalized signal at 0.123457 (second series): 0.5683
  normalized signal at 0.37037 (first series): 0.7959
  normalized signal at 0.37037 (second series): 0.6689
  normalized signal at 1.11111 (first series): 0.9118
  normalized signal at 1.11111 (second series): 0.6624
  normalized signal at 3.33333 (first series): 0.9028
  normalized signal at 3.33333 (second series): 0.8412
  normalized signal at 10 (first series): 0.8222
  normalized signal at 10 (second series): 0.7063
[1]; [3]
  pIC50: < 5.00
HepG2-A16-CD81EGFP cells; [2]
  Tox_max_inhibition (%): 9%
HepG2-A16-CD81EGFP cells; 2nd round, unit inferred
  pIC50: < 5.00

## C/C=C/c1ccc([C@H]2[C@@H](CO)N(CC3CCCCC3)[C@@H]2CNC(C)C)cc1 [BRD-K19633528-001-01-3]
[1]; [2]
  PbLuc_max_inhibition (%): 58%
[1]
  normalized signal at 0.000508053 (first series): 1
  normalized signal at 0.000508053 (second series): 0.834
  normalized signal at 0.00152416 (first series): 0.9222
  normalized signal at 0.00152416 (second series): 0.7558
  normalized signal at 0.00457247 (first series): 0.9507
  normalized signal at 0.00457247 (second series): 1.046
  normalized signal at 0.0137174 (first series): 0.9718
  normalized signal at 0.0137174 (second series): 0.826
  normalized signal at 0.0411523 (first series): 1.123
  normalized signal at 0.0411523 (second series): 1.151
  normalized signal at 0.123457 (first series): 1.141
  normalized signal at 0.123457 (second series): 0.8556
  normalized signal at 0.37037 (first series): 1.177
  normalized signal at 0.37037 (second series): 1.086
  normalized signal at 1.11111 (first series): 1.183
  normalized signal at 1.11111 (second series): 0.9808
  normalized signal at 3.33333 (first series): 1.3301
  normalized signal at 3.33333 (second series): 0.9519
  normalized signal at 10 (first series): 0.5856
  normalized signal at 10 (second series): 0.4223
[1]; [3]
  pIC50: < 5.00
HepG2-A16-CD81EGFP cells; [2]
  Tox_max_inhibition (%): 16%
HepG2-A16-CD81EGFP cells; 2nd round, unit inferred
  pIC50: < 5.00
